“And” between values parts separate entries of the source, which are not always exact repeats. Equal entries are not always repeated. Where two headings read alike, the source gives them in different places.
What was measured:
[1] = test system: S. aureus (MN8); format: cell-based, Staphylococcus aureus
[2] = test system: TSST-1; format: cell-based, Staphylococcus aureus

`CC(=O)/C=C/C1=C(C)CCCC1(C)C` [Beta-ionone] was tested, and the CFU/mL [1] was 1.8E + 08 CFU/mL, the “Optical Density” value [1] was 0.688 and the “Reduction of Toxin %” value [2] was 100%. For the same compound, the “ng TSST-1 per OD Unit” value [2] was “none”.

For `CC(C)=CCC/C(C)=C/CO` [Geraniol], the CFU/mL [1] was 3.2E + 08 CFU/mL, the “Optical Density” value ([1]; 0.01% test compound, Table 3) was 0.0569 and the “Reduction of Toxin %” value [2] was 99%. The “ng TSST-1 per OD Unit” value [2] was 26 ng TSST-1 per OD Unit.

For `C=CC(C)(O)CCC=C(C)C` (centres unmarked) [Linalool], the CFU/mL [1] was 2.0E + 09 CFU/mL, the “Optical Density” value ([1]; 0.01% test compound, Table 3) was 0.600 and the “Reduction of Toxin %” value [2] was 88%. For the same compound, the “ng TSST-1 per OD Unit” value [2] was 421 ng TSST-1 per OD Unit.

With `CC1CCC(C(C)C)C(O)C1` (centres unmarked) [Menthol] the “effect on the growth of S. aureus cells” value [1] was “minimal, if any, effect”, the “Optical Density” value ([1]; 0.1% test compound (in methanol), S. aureus MN8, 24 h, 600 nm) was 0.621 and the CFU/mL ([1]; 24 h) was 6.3E + 08 CFU/mL. The “ng TSST-1 per OD Unit” value ([2]; 24 h) was 33 ng TSST-1 per OD Unit.

For `CC1(O)CCC(C(C)(C)O)CC1` (centres unmarked) [p-menthane-1,8-diol], the CFU/mL [1] was 2.0E + 09 CFU/mL, the “Optical Density” value ([1]; 0.7% test compound, Table 3) was 0.620 and the “Reduction of Toxin %” value [2] was 78%. The “ng TSST-1 per OD Unit” value [2] was 792 ng TSST-1 per OD Unit.

With myreth-3-myristate [Cetiol] the “CFU/mL × 10^8” value [1] was 4.2 and 5.9 and 5.0, the “ng TSST-1 per CFU” value [2] was 371 ng TSST-1 per CFU and 196 ng TSST-1 per CFU and 200 ng TSST-1 per CFU and the “ng TSST-1 per mL” value [2] was 1556 ng TSST-1 per mL and 1147 ng TSST-1 per mL and 989 ng TSST-1 per mL.

Source: US6596290B2 (priority 2001, dated 2003)
